Test results from patent US9993494B2, “Compositions and methods for treating fibrotic disease” (eFFECTOR Therapeutics, Inc., priority 2014, dated 2018).

Test system: normal human lung fibroblasts
Experiment: Ribosomal profiling: translational efficiency in TGFβ-treated fibroblasts
Format: cell-based
Conditions: TGFβ-treated fibroblasts
Summary of the method: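 Genome-wide RPF and total RNA libraries (ARTseq, RNA-Seq) were made from lysates of cycloheximide-treated, PBS-washed cells. After trimming and human-genome mapping, per-gene coding-region counts were compared between RPF and RNA for translational efficiency. Genes scoring low in either fraction were dropped.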

COC(=O)[C@H]1[C@@H](O)[C@@]2(O)c3c(OC)cc(O[C@@H]4O[C@@H]([C@H](O)CO)CO[C@H]4OC)cc3O[C@@]2(c2ccc(OC)cc2)[C@@H]1c1ccccc1 [Silvestrol]
+++ (+++ = >2.0): renormalizing the translational profile of RASD1 (ENSG00000108551) | renormalizing the translational profile of CIT (ENSG00000122966) | renormalizing the translational profile of PPARG (ENSG00000132170)
− (− = <0.9): renormalizing the translational profile of KITLG (ENSG00000049130) | renormalizing the translational profile of ADAMTS6 (ENSG00000049192) | renormalizing the translational profile of LETMD1 (ENSG00000050426) | renormalizing the translational profile of EIF4B (ENSG00000063046) | renormalizing the translational profile of RPL18 (ENSG00000063177) | renormalizing the translational profile of HIPK2 (ENSG00000064393) | renormalizing the translational profile of RASSF1 (ENSG00000068028) | renormalizing the translational profile of PABPC1 (ENSG00000070756) | renormalizing the translational profile of RPL31 (ENSG00000071082) | renormalizing the translational profile of AURKA (ENSG00000087586) | renormalizing the translational profile of RPL6 (ENSG00000089009) | renormalizing the translational profile of P2RX7 (ENSG00000089041) | renormalizing the translational profile of KDM2B (ENSG00000089094) | renormalizing the translational profile of RPLP0 (ENSG00000089157) | renormalizing the translational profile of IGBP1 (ENSG00000089289) | renormalizing the translational profile of FMO2 (ENSG00000094963) | renormalizing the translational profile of ACOT7 (ENSG00000097021) | renormalizing the translational profile of ATP5D (ENSG00000099624) | renormalizing the translational profile of LGALS1 (ENSG00000100097) | renormalizing the translational profile of EIF3L (ENSG00000100129) | renormalizing the translational profile of RPL3 (ENSG00000100316) | renormalizing the translational profile of AMMECR1 (ENSG00000101935) | renormalizing the translational profile of PLP2 (ENSG00000102007) | renormalizing the translational profile of EIF3E (ENSG00000104408) | renormalizing the translational profile of EEF1D (ENSG00000104529) | renormalizing the translational profile of C19orf53 (ENSG00000104979) | renormalizing the translational profile of GLTSCR2 (ENSG00000105373) | renormalizing the translational profile of RAB3D (ENSG00000105514) | renormalizing the translational profile of RPL18A (ENSG00000105640) | renormalizing the translational profile of COMP (ENSG00000105664) | renormalizing the translational profile of GDF10 (ENSG00000107623) | renormalizing the translational profile of RPL28 (ENSG00000108107) | renormalizing the translational profile of RPL19 (ENSG00000108298) | renormalizing the translational profile of NAT9 (ENSG00000109065) | renormalizing the translational profile of RPL34 (ENSG00000109475) | renormalizing the translational profile of CRYAB (ENSG00000109846) | renormalizing the translational profile of GAPDH (ENSG00000111640) | renormalizing the translational profile of C12orf57 (ENSG00000111678) | renormalizing the translational profile of MDFI (ENSG00000112559) | renormalizing the translational profile of RPL24 (ENSG00000114391) | renormalizing the translational profile of EEF1B2 (ENSG00000114942) | renormalizing the translational profile of IFIH1 (ENSG00000115267) | renormalizing the translational profile of DPH5 (ENSG00000117543) | renormalizing the translational profile of PPL (ENSG00000118898) | renormalizing the translational profile of PLEKHG1 (ENSG00000120278) | renormalizing the translational profile of LIAS (ENSG00000121897) | renormalizing the translational profile of GPSM2 (ENSG00000121957) | renormalizing the translational profile of RPL21 (ENSG00000122026) | renormalizing the translational profile of RPL5 (ENSG00000122406) | renormalizing the translational profile of RPL23 (ENSG00000125691) | renormalizing the translational profile of LAMP5 (ENSG00000125869) | renormalizing the translational profile of NECAB3 (ENSG00000125967) | renormalizing the translational profile of COX7C (ENSG00000127184) | renormalizing the translational profile of LIF (ENSG00000128342) | renormalizing the translational profile of MTUS1 (ENSG00000129422) | renormalizing the translational profile of ARHGEF6 (ENSG00000129675) | renormalizing the translational profile of RPL36 (ENSG00000130255) | renormalizing the translational profile of GDF15 (ENSG00000130513) | renormalizing the translational profile of ASS1 (ENSG00000130707) | renormalizing the translational profile of EIF2S3 (ENSG00000130741) | renormalizing the translational profile of RPL27 (ENSG00000131469) | renormalizing the translational profile of RARRES3 (ENSG00000133321) | renormalizing the translational profile of BIVM (ENSG00000134897) | renormalizing the translational profile of ATP5G2 (ENSG00000135390) | renormalizing the translational profile of KRT7 (ENSG00000135480) | renormalizing the translational profile of HNRNPA1 (ENSG00000135486) | renormalizing the translational profile of IL6 (ENSG00000136244) | renormalizing the translational profile of RPL35 (ENSG00000136942) | renormalizing the translational profile of NOV (ENSG00000136999) | renormalizing the translational profile of IER3 (ENSG00000137331) | renormalizing the translational profile of RPLP1 (ENSG00000137818) | renormalizing the translational profile of PAQR5 (ENSG00000137819) | renormalizing the translational profile of AOX1 (ENSG00000138356) | renormalizing the translational profile of FGF5 (ENSG00000138675) | renormalizing the translational profile of PDE5A (ENSG00000138735) | renormalizing the translational profile of DIAPH3 (ENSG00000139734) | renormalizing the translational profile of RPL13A (ENSG00000142541) | renormalizing the translational profile of RPL11 (ENSG00000142676) | renormalizing the translational profile of PLEKHA6 (ENSG00000143850) | renormalizing the translational profile of RPL32 (ENSG00000144713) | renormalizing the translational profile of RPL37 (ENSG00000145592) | renormalizing the translational profile of BTF3 (ENSG00000145741) | renormalizing the translational profile of HIGD2A (ENSG00000146066) | renormalizing the translational profile of CREB5 (ENSG00000146592) | renormalizing the translational profile of DENND2A (ENSG00000146966) | renormalizing the translational profile of RPL10 (ENSG00000147403) | renormalizing the translational profile of EIF3H (ENSG00000147677) | renormalizing the translational profile of RPL7A (ENSG00000148303) | renormalizing the translational profile of EIF3M (ENSG00000149100) | renormalizing the translational profile of FAU (ENSG00000149806) | renormalizing the translational profile of CCDC102B (ENSG00000150636) | renormalizing the translational profile of FRMD4A (ENSG00000151474) | renormalizing the translational profile of PLEKHH2 (ENSG00000152527) | renormalizing the translational profile of OBSCN (ENSG00000154358) | renormalizing the translational profile of OXA1L (ENSG00000155463) | renormalizing the translational profile of C9orf85 (ENSG00000155621) | renormalizing the translational profile of RPL30 (ENSG00000156482) | renormalizing the translational profile of EEF1A1 (ENSG00000156508) | renormalizing the translational profile of RPL8 (ENSG00000161016) | renormalizing the translational profile of RPL26 (ENSG00000161970) | renormalizing the translational profile of RPL29 (ENSG00000162244) | renormalizing the translational profile of CAMK2N1 (ENSG00000162545) | renormalizing the translational profile of IGFBP7 (ENSG00000163453) | renormalizing the translational profile of RPL22L1 (ENSG00000163584)
+ (+ = 0.9 to 1.5): renormalizing the translational profile of DNASE1L1 (ENSG00000013563) | renormalizing the translational profile of ASPM (ENSG00000066279) | renormalizing the translational profile of EPB41L1 (ENSG00000088367) | renormalizing the translational profile of IRAK3 (ENSG00000090376) | renormalizing the translational profile of PABPC4 (ENSG00000090621) | renormalizing the translational profile of CEP192 (ENSG00000101639) | renormalizing the translational profile of GLCCI1 (ENSG00000106415) | renormalizing the translational profile of HBEGF (ENSG00000113070) | renormalizing the translational profile of INHBA (ENSG00000122641) | renormalizing the translational profile of MATN3 (ENSG00000132031) | renormalizing the translational profile of KDM6B (ENSG00000132510) | renormalizing the translational profile of DDX60 (ENSG00000137628) | renormalizing the translational profile of GAS2L3 (ENSG00000139354) | renormalizing the translational profile of MYO19 (ENSG00000141140) | renormalizing the translational profile of HOMER1 (ENSG00000152413) | renormalizing the translational profile of ANKH (ENSG00000154122) | renormalizing the translational profile of ADAMTS5 (ENSG00000154736) | renormalizing the translational profile of NRG1 (ENSG00000157168)
++ (++ = 1.5 to 2.0): renormalizing the translational profile of PLEKHA5 (ENSG00000052126) | renormalizing the translational profile of PLD1 (ENSG00000075651) | renormalizing the translational profile of EDN1 (ENSG00000078401) | renormalizing the translational profile of ABCA6 (ENSG00000154262)
